In patent publication US20120046308A1, “NOVEL ALPHA-PHENOXYBENZENEACETIC ACID DERIVATIVE AND PHARMACEUTICAL PREPARATION COMPRISING SAME” (KOWA COMPANY, LTD., priority 2009, published 2012):
Read-outs that look alike come from different tables or passages of the source.

Columns and labels:
human PPARγ2 [1] = target: T1, human PPARγ2 (Homo sapiens, UniProt P37231); experiment: PPARγ activation activity, Gal4-PPARγ2 LBD luciferase transfection assay using COS7 cells; format: cell-based; conditions: maximum activity relative to rosiglitazone
T1 construct: the amino acids 182 to 505 of human PPARγ2; expressed in transfected cells; host or cells: COS7 cells (African green monkey kidney)
T1 sequence (P37231 182-505): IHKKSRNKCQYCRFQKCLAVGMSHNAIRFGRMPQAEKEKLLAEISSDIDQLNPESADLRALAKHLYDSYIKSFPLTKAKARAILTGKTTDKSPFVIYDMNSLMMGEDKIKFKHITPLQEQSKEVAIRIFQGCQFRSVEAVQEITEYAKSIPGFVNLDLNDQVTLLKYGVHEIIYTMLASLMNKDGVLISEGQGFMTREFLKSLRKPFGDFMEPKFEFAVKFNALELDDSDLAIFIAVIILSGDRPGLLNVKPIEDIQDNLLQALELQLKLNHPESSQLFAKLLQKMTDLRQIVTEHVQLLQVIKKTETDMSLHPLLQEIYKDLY

human PPARγ2 [2] = target: T1, human PPARγ2; experiment: as above; format: cell-based; conditions: for EC50: 16 hours, luciferase activity relative to rosiglitazone = 100%; for Emax: COS-7, 16 h, maximum activity strength relative to the maximum activity of rosiglitazone, read-out: % MAX vs Rosiglitazone
Experimental: The agonistic activity of the compounds of the invention on PPARγ was measured based on the transfection assay using COS7 cells (DS Pharma Biomedical Co., Ltd., Osaka, Japan), which are the cell line derived from the kidney of the African green monkey. COS7 cells were cultured under 5% CO2 concentration, and DMEM medium containing 10% fetal bovine serum, glutamic acid, and antibiotics was used as a medium.
As an expression vector, a chimera in which DNA binding domain of Gal4, which is a yeast transcription factor, and ligand binding domain of human PPARγ2 are fused, i.e., a fused product between the amino acids 1 to 147 of Gal4 transcription factor and the amino acids 182 to 505 of human PPARγ2, was used. Furthermore, as a reporter vector, a firefly luciferase containing five copies of Gal4 recognition sequence in the promoter region was used. Plasmid transfection to the cells was performed according to a method which uses jetPEI (trade name, manufactured by Funakoshi Co., Ltd., Tokyo, Japan). Furthermore, β-galactosidase expression vector was employed as an internal standard.
After the transfection of the cells, the medium was replaced with a DMEM medium (containing 1% serum) added with the compound, and the cells were further cultured for 16 hours. After that, the luciferase activity and β-galactosidase activity in the cell lysis solution were measured.
For the present test, dimethyl sulfoxide (DMSO) was used for dissolution and dilution of the test compounds, and during the cell treatment, the DMSO concentration in DMEM medium (containing 1% serum) was adjusted to 0.1%. As a positive compound, rosiglitazone (trade name, manufactured by ALEXIS Corporation, Switzerland) was used. The luciferase activity (%) of the test compounds (1 to 30 μmol/L) was calculated when the luciferase activity of rosiglitazone (3 to 10 μmol/L) is 100% and the luciferase activity in the absence of the test compound is 0%. The 50% effective concentration of the test compound (EC50, 50% effect concentration) was calculated by using SAS Preclinical Package Ver5.0 (trade name, manufactured by SAS institute Japan Co., Tokyo, Japan), which is a statistical analysis program.

[3] = target: T2, angiotensin II type 1 receptor (Oryctolagus cuniculus, UniProt P34976); experiment: Angiotensin II antagonistic activity in isolated rabbit blood vessels (thoracic aorta ring contraction); conditions: angiotensin II (10 nM)-induced contraction
T2 construct: By using a specimen of isolated rabbit blood vessels; from tissue; host or cells: rabbit (New Zealand White) thoracic aorta ring
T2 sequence (P34976 1-359): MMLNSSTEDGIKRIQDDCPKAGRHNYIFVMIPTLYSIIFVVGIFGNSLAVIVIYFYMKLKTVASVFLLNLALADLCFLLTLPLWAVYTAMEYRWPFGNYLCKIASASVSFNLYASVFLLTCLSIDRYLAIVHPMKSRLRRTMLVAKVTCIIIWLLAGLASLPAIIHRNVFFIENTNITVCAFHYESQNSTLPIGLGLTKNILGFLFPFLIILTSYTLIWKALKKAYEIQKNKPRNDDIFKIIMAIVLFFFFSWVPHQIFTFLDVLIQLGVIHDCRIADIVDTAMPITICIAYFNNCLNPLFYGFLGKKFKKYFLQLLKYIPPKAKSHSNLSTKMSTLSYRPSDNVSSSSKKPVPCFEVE
Experimental: By using a specimen of isolated rabbit blood vessels, antagonistic activity of the compounds of the invention against angiotensin II type 1 receptor was estimated from a dose-response curve of angiotensin II-induced blood vessel contraction.
During the measurement, the inside temperature of the magnus bath was maintained at 37° C. and the bath was continuously ventilated with a sufficient amount of mixed gas (95% O2 and 5% CO2). The angiotensin II-induced contraction was converted into a relative value (%) that is based on the angiotensin II (10 nM)-induced contraction in the absence of the compounds of each example. From the concentration-response curve obtained therefrom, 50% inhibition concentration (IC50 value) was calculated by using SAS Preclinical Package Ver5.0 (trade name, manufactured by SAS institute Japan Co., Tokyo, Japan), which is a statistical analysis program.

| Structure (SMILES) | EC50 (human PPARγ2 [2]; COS7 cells, read-out: EC50) | Emax (human PPARγ2 [2]) | IC50 [3] | maximum activity compared with that of termisartan (human PPARγ2 [1]) | EC50 (human PPARγ2 [2]; EC50, COS7 cells) |
| --- | --- | --- | --- | --- | --- |
| CCCCc1nc(C)n(-c2ccccn2)c(=O)c1Cc1cc(CCC)c(OC(C(=O)O)c2ccc(Cl)cc2)c(CCC)c1 (stereo not drawn) [Example 9] | 540 nM | 47% |  | equal to or more than that of termisartan |  |
| CCCc1nc2c(C)cc(-c3nc4ccccc4n3C)cc2n1Cc1ccc(-c2ccccc2C(=O)O)cc1 [telmisartan, reference compound] |  | 30 to 50% | 25 nM |  | 1000 to 5000 nM |
| CCCCc1nc(C)n(-c2ccc(OC(C)C)cc2)c(=O)c1Cc1cc(CCC)c(OC(C(=O)O)c2ccccc2)c(CCC)c1 (stereo not drawn) [Example 14] | 600 nM | 63% |  | equal to or more than that of termisartan |  |
| CCCCc1nc(C)n(-c2ncc(OC)cn2)c(=O)c1Cc1cc(CCC)c(OC(C(=O)O)c2ccccc2)c(CCC)c1 (stereo not drawn) [Example 15] | 2710 nM | 47.2% | 92 nM | equal to or more than that of termisartan |  |
| CCCCc1nc(C)n(-c2ccc(OCc3ccccc3)cc2)c(=O)c1Cc1cc(CCC)c(OC(C(=O)O)c2ccccc2)c(CCC)c1 (stereo not drawn) [Example 12, 2-[4-[[1-{4-(benzyloxy)phenyl}-4-butyl-2-methyl-6-oxo-1,6-dihydropyrimidin-5-yl]methyl]-2,6-dipropylphenoxy]-2-phenyla cetic acid] | 440 nM | 57.5% |  | equal to or more than that of termisartan |  |

More lines, main results first:

| EC50 (human PPARγ2 [2]; COS7 cells, read-out: EC50) | Emax (human PPARγ2 [2]) | IC50 [3] | Structure (SMILES) | maximum activity compared with that of termisartan (human PPARγ2 [1]) | EC50 (human PPARγ2 [2]; EC50, COS7 cells) |
| --- | --- | --- | --- | --- | --- |
| 2670 nM |  | 250 nM | CCCCc1nc(C)n(CCOC)c(=O)c1Cc1cc(CCC)c(OC(C(=O)O)c2ccccc2)c(CCC)c1 (stereo not drawn) [Example 33, 2-[4-[{4-butyl-1-(2-methoxyethyl)-2-methyl-6-oxo-1,6-dihydropyrimidin-5-yl}methyl]-2,6-dipropylphenoxy]-2-phenylacetic acid] |  |  |
| 280 nM | 28.5% | 836 nM | CCCCc1nc(C)n(CC2CCCCC2)c(=O)c1Cc1cc(CCC)c(OC(C(=O)O)c2ccccc2)c(CCC)c1 (stereo not drawn) [Example 30, 2-[4-[(4-butyl-1-(cyclohexylmethyl)-2-methyl-6-oxo-1,6-dihydropyrimidin-5-yl}methyl]-2,6-dipropylphenoxy]-2-phenylacet ic acid] |  |  |
| 1460 nM | 44.4% | 58 nM | CCCCc1nc(C)n(-c2ncc(OC)cn2)c(=O)c1Cc1cc(CCC)c(OC(C(=O)O)c2ccccc2)c(CCC)c1 (single isomer, unassigned; (-)) [Example 16, (−)-2-[4-[{4-butyl-1-(5-methoxypyrimidin-2-yl)-2-methyl-6-oxo-1,6-dihydropyrimidin-5-yl}methyl]-2,6-dipropylphenoxy]-2-phenylacetic acid] |  |  |
| 3070 nM | 32% | 530 nM | CCCCc1nc(C)n(-c2ccccn2)c(=O)c1Cc1cc(CCC)c(OC(C(=O)O)c2ccccc2)c(CCC)c1 (stereo not drawn) [Example 1, 2-[4-[{4-butyl-2-methyl-6-oxo-1-(pyridin-2-yl)-1,6-dihydropyrimidin-5-yl}methyl]-2,6-dipropylphenoxy]-2-phenylacetic acid] |  |  |
| 2590 nM | 58.6% | 115 nM | CCCCc1nc(C)n(-c2ncc(OCC)cn2)c(=O)c1Cc1cc(CCC)c(OC(C(=O)O)c2ccccc2)c(CCC)c1 (stereo not drawn) [Example 20] |  |  |
